Reference: patent US7264969B1, “Carrier system for specific artery wall gene delivery” (University of Utah Research Foundation, priority 2000, dated 2007)
Where no end group is shown, it is not given here.

Tests used:
[1] = tested on: bovine aorta endothelial cells; assay: Transfection assay (luciferase gene expression); assay type: cell-based
Experimental: (§1) Gene expression. (Transfection assay) Primary bovine aorta endothelial cells and smooth muscle cells were prepared, cultured, characterized, and identified as described in L. Yu et al., supra. Bovine aorta endothelial cells (5×10^5/well) and smooth muscle cells (2×10^5/well) were seeded in 24-well plates with 1 ml Dulbecco's modified Eagle medium (DMEM, Hyclone Laboratories, Logan, Utah) containing 10% fetal bovine serum (FBS, Hyclone Laboratories) and incubated for 24 hours to 70-80% confluency. The AWBP-PEG-g-PLL/pCMV-Luc complexes were freshly prepared in PBS for the transfection with fixed amount of plasmid DNA (2 μg/well) and various amounts of AWBP-PEG-g-PLL. After incubation of complexes for 30 minutes at room temperature, 100 μl of complex solution was added to the cells and then incubated for 3 hours at 37° C. in 5% CO2 atmosphere. After replacement of media, the cells were incubated for 40 hours under the same conditions. The cells were washed three times with PBS buffer and made ready for the reporter gene expression assay.
(§2) (Gene expression assay) Transgene expression was evaluated by luciferase activity of cell lysates from transfected bovine aorta endothelial cells and smooth muscle cells. Measurement of luciferase activity was performed according to the manufacturer's instruction (Luciferase Assay System, Promega, Madison, Wis.). Briefly, the transfected cells were lysed with 1× lysis buffer (1% Triton X-100), 100 mM KPO4, 2 mM dithiothreitol, 10% glycerol, and 2 mM EDTA, pH 7.8) for 15 minutes at room temperature. To measure the luciferase activity, 20 μl aliquot of cell lysate was mixed with 50 μl of luciferase assay reagent at room temperature and inserted in the luminometer. Light emission was measured in triplicate over 10 s and expressed as relative light units (RLUs). RLUs were normalized from the protein content of each sample, which was determined by BCA protein assay.

[2] = tested on: bovine aorta smooth muscle cells; assay: Transfection assay (luciferase gene expression); assay type: cell-based
Experimental: as §1, §2

DNase I = assay: DNase protection assay; conditions: 37° C.; charge ratio 2/1 (+/−); 10 times excess of DNase I; FIG. 3B
Experimental: AWBP-PEG-g-PLL/pDNA complexes were prepared at the charge ratios of 2/1 (+/−) and incubated in the presence of 10 times excess of DNase I. At 0, 5, 10, 15, 20, 60, and 120 minutes after incubation, 50 μl of the sample was transferred into another tube and mixed with 100 μl of stop solution (400 mM NaCl and 100 mM EDTA) using mild agitation with a vortexer. The sample was then mixed with 12 μl of 10% (w/v) sodium dodecyl sulfate (SDS) and incubated at 65° C. overnight. DNA was extracted with the mixture of Tris-EDTA saturated phenol:chloroform:isoamyl alcohol (25:24:1, v/v). The extracted DNA was precipitated with 700 μl of absolute ethanol at 12,000 rpm for 30 minutes and washed with 70% ethanol. The DNA precipitate was air-dried and then dissolved in 10 μl TE buffer. The plasmid integrity was assessed by electrophoresis in a 1% agarose gel.

[3] = tested on: bovine aorta endothelial cells; assay: Transfection inhibition assay with free AWBP; assay type: cell-based; conditions: free AWBP 31.25 μM to 500 μM
Experimental: (§3) (Transfectioninhibition assay). Bovine aorta endothelial cells (5×10^5/well) and smooth muscle cells (2×10^5/well) were seeded in 24-well plates 1 day prior to transfection with 70 to 80% confluence. The AWBP-PEG-g-PLL/pCMV-Luc complexes were freshly prepared in PBS buffer for the transfection with a fixed amount of plasmid DNA (2 μg/well) and AWBP-PEG-g-PLL (4 μg/well). After addition of various amounts of free artery wall binding peptide (range from 31.3 μM to 1.0 mM) for 20 minutes at 4° C., 100 μl AWBP-PEG-g-PLL/pCMV-Luc solution was added to the cells. All the other conditions were the same as described above for the transfection assay.
as §2, with “To measure the luciferase activity, 20 μl aliquot of cell lysate was mixed with 50 μl of luciferase assay reagent at room temperature and inserted in the luminometer.” left out

[4] = tested on: bovine aorta smooth muscle cells; assay: Transfection inhibition assay with free AWBP; assay type: cell-based; conditions: free AWBP 31.25 μM to 500 μM
Experimental: as §3
as §2, with “To measure the luciferase activity, 20 μl aliquot of cell lysate was mixed with 50 μl of luciferase assay reagent at room temperature and inserted in the luminometer.” left out

Row | Substance | luciferase activity of cell lysate ([1]; ratio carrier to plasmid DNA from 1.5:1 to 2:1, FIG. 6A) | luciferase activity of cell lysate ([1]; ratio carrier to plasmid DNA from 2:1 to 5:1, FIG. 6A) | luciferase activity of cell lysate ([2]; ratio carrier to plasmid DNA from 1.5:1 to 2:1, FIG. 6B) | luciferase activity of cell lysate ([2]; ratio carrier to plasmid DNA from 2:1 to 5:1, FIG. 6B) | time for which pDNA is protected from digestion with DNase (DNase I) | effect of free AWBP on gene transfer by AWBP-PEG-g-PLL/pDNA complexes [3] | effect of free AWBP on gene transfer by AWBP-PEG-g-PLL/pDNA complexes [4]
1 | AWBP-PEG-g-PLL: artery wall binding peptide (SEQ ID NO:2) conjugated to poly(ethylene glycol)-grafted-poly(L-lysine), about 4 mol AWBP per mole (CGRALVDTLKFVTQAEGAK; also: conjugated to PEG-grafted poly(L-lysine), about 4 mol peptide per mole, site not given here; listed as Homo sapiens) | significantly increased | remained constant | significantly increased | remained constant | at least 2 hours |  | 
2 | AWBP: synthetic peptide based on arterial binding domain of apo B-100 (residues 1000-1016) with cysteine added to amino-terminus (CGRALVDTLKFVTQAEGAK; listed as Homo sapiens) |  |  |  |  |  | significantly inhibit | significantly inhibit
